# Source: patent US10799478B2, “Treatment of androgen deprivation therapy associated symptoms” (priority 2014, dated 2020)
# Read-outs that look alike come from different tables or passages of the source.
# How the values were obtained:
# [1] = system: LnCAP human prostate cancer cells; assay: LnCAP Gene Expression; format: cell-based; conditions: Homo sapiens, LNCaP
# [2] = system: Orx rats; assay: Orchidectomized Rat Assay; format: in vivo; conditions: PTH 10 ug/Kg/d sc, once daily 2 months
# [3] = system: ORX Wistar male rats; assay: In Vivo Study to Explore Direct Antagonist Effect of Example 1 in the Presence of TE; set-up: species or system rat
# Experimental: Route of administration for all groups except TE is oral. TE is administered subcutaneously. At the end of 8 weeks of daily dosing, rats are euthanized, weighed & tissue harvested. Levator ani, prostates, and seminal vesicles are collected from each animal. Results are plotted as means±SE.
# [4] = ORX + TE 1 mg/kg/d (control group of Dunnett's comparison)
# [5] = ORX + TE 1 mg/kg/d sc alone, 8 weeks
compound,measurement,setting,value
C[C@]1(O)CC[C@H]2[C@@H]3CCC4=CC(=O)CCC4=C3C=C[C@@]21C [Example R1881],EC50,"[1]; AR gene, read-out: LnCAP Gene Expression EC50 (nM) AR",0.035 nM
same,EC50,"[1]; CLUSTERIN gene, read-out: LnCAP Gene Expression EC50 (nM) CLUSTERIN",0.37 nM
same,EC50,"[1]; PSA gene, read-out: LnCAP Gene Expression EC50 (nM) PSA",0.034 nM
"PTH: PTH (1-38) (Zeneca (Cambridge Research Biochemicals)), given sc as an injection (SVSEIQLMHNLGKHLNSMERVEWLRKKLQDVHNFVALG; Parathyroid hormone; UniProt P01270 32-69, looked up, fragment) [reference compound]","SV Weight, % Sham",[2],5.6 % Sham
"CCCCCCC(=O)O[C@H]1CC[C@H]2[C@@H]3CCC4=CC(=O)CC[C@]4(C)[C@H]3CC[C@]12C [TE, testosterone enanthate, reference compound]","Prostate Weights, Abs(Dif) − LSD",[3]; [4],−0.15
same,"Seminal Vesicle Wet Weights, Abs(Dif) − LSD",[3]; [4],−0.52
same,"Prostate Weight, % Sham",[3]; [5],45.5 % Sham
same,"SV Weight, % Sham",[3]; [5],58.5 % Sham
